Assay results published in US20230219963A1, “PYRROLO[2,3-D]PYRIMIDINE DERIVATIVES” (Pfizer Inc., priority 2020, published 2023).

How the values were obtained:
IL-6 induced pSTATI = assay: IL-6-induced pSTAT1 in human whole blood (CD3+ cells); type: cell-based; settings: JAK1/JAK2, read-out: IL-6 induced pSTATI, cellular potency IC50
Experimental: (§1) Human whole blood was collected from healthy donors via vein puncture into Vacutainer collection tubes containing sodium heparin in accordance with Pfizer protocols (Protocol No. GOHW RDP-01) approved by the Shulman Institutional Review Board. Blood was warmed to 37° C. priorto use. Human whole blood was aliquoted (90 μL/well) in 96-well, deep-well, V-bottom plates and treated with compounds (5 μL/well) at different concentrations up to 60 μM (0.2% DMSO final) at 37° C. for 60 minutes. This was followed by a challenge with IFNα (5000 U/mL), IFNγ (100 ng/mL), IL-6 (50 ng/mL), IL-10 (30 ng/mL), IL-12 (30 ng/mL), IL-15 (30 ng/mL), IL-21 (50 ng/mL), IL-23 (25 ng/mL), IL-27 (1000 ng/mL), EPO (2 U/mL), TSLP (50 ng/mL) or PBS and incubated for 15 minutes. Anti-cell surface antibodies were added 15 minutes prior to cytokine stimulation; anti-CD3-BV421 (0.5 μL/well) to IL-6-treated and TSLP-treated samples and anti-CD14-BV421 (0.5 μL/well) to IFNγ-treated samples. Samples were treated with warm 1×Lyse/Fix buffer (700 μL/well) to terminate activation and further incubated at 37° C. for 20 minutes to lyse red blood cells. Plates were centrifuged at 300×g for 5 minutes, supernatant was aspirated, and cells were washed with 800 μL/well of staining buffer (D-PBS containing 0.1% FBS and 0.01% sodium azide). Washed cell pellets were resuspended in 350 μL/well of prechilled 90% methanol and incubated at 4° C. for 30 minutes. After the removal of 90% methanol, cells were washed once with staining buffer. All samples were finally suspended in 150 μL/well of the desired anti-phospho-STAT antibodies at 1:150 dilution in staining buffer; anti-pSTAT1-AF647 in IFNγ treated samples; anti-pSTAT1-AF488 and anti-pSTAT3-AF647 in IL-6-treated samples, anti-pSTAT3-AF647 in IFNα, IL-10, IL-21, IL-23 and IL-27 treated samples, anti-pSTAT4-AF647 in IL-12 treated samples, anti-pSTAT5-AF-647 in EPO, IL-15 and TSLP-treated samples. Human primary keratinocytes were cultured in DermaLife™ medium with supplement kit to expand cell population. Cell passages 2 to 5 were used in the assays. Cells were harvested at ˜80% confluence, suspended in warm DermaLife™ medium, aliquoted (90 μL/well) in 96-well, deep-well, V-bottom plates, and incubated at 37° C. for 30 minutes. Cells were then treated with compounds (0.0003 to 20 μM) for 60 minutes and followed by stimulation with IL-4 (2 ng/mL) or IL-13 (20 ng/mL) at 37° C. for 15 minutes. […]
(§2) After overnight incubation at 4° C., anti-pSTAT stained samples were transferred into 96-well polypropylene U-bottom plates and flow cytometric analysis was performed on a LSR Fortessa™ equipped with a HTS plate loader. […] Background fluorescence was defined using unstimulated cells and a gate was placed at the foot of the peak to include ˜0.5% gated population. […]

IL-21 induced pSTAT3 = assay: IL-21-induced pSTAT3 in human whole blood (lymphocytes); type: cell-based; settings: Lymphocyte, JAK1/JAK3, read-out: IL-21 induced pSTAT3, cellular potency IC50
Experimental: as §1, §2

JAK2 = JAK2 (Homo sapiens, UniProt O60674); assay: JAK Caliper Enzyme Assay at 1 mM ATP (JAK2); type: biochemical
JAK2, sequence (O60674 whole entry): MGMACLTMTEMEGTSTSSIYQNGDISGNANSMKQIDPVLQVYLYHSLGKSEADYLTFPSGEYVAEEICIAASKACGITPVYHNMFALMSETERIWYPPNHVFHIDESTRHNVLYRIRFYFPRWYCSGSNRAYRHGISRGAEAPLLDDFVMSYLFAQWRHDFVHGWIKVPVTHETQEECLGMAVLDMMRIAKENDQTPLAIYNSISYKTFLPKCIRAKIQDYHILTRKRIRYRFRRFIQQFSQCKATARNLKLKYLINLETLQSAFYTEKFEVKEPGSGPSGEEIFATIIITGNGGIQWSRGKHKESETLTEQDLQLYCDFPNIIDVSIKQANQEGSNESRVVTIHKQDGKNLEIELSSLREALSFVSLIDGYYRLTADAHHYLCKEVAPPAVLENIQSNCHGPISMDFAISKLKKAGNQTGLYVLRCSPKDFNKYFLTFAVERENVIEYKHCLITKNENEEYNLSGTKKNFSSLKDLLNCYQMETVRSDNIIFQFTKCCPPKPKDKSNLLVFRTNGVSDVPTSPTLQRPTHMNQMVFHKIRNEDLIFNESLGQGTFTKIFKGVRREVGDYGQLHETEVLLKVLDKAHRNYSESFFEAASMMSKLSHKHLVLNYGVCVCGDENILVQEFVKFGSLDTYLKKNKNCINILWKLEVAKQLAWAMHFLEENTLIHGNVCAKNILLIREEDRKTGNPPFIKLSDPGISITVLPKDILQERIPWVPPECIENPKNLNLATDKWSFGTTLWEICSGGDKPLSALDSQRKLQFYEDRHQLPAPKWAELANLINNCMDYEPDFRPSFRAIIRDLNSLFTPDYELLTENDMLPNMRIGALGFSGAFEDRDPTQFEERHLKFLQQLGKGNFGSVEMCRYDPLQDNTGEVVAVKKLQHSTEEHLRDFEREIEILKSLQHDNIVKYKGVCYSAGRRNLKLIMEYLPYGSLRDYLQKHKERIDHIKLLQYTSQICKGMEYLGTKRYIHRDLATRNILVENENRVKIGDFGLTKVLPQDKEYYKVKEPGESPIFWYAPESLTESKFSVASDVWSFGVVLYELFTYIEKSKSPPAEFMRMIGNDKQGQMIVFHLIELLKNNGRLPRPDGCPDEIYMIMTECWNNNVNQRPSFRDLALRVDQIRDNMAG
Experimental: JAK Caliper Enzyme Assay at 1 mM ATP
Test article was solubilized in dimethyl sulfoxide (DMSO) to a stock concentration of 30 mM. An 11-point half log dilution series was created in DMSO with a top concentration of 600 μM. […] The compound plates were diluted 1 to 60 resulting in a top final assay compound concentration of 10 μM and a 2% DMSO concentration. Test article and assay controls were added to a 384-well plate. Reaction mixtures contained 20 mM HEPES, pH 7.4, 10 mM magnesium chloride, 0.01% bovine serum albumin (BSA), 0.0005% Tween 20, 1 mM ATP and 1 μM peptide substrate. […] The assays were initiated by the addition of 20 nM JAK1, 1 nM JAK2, 1 nM JAK3 or 1 nM TYK2 enzyme and were incubated at room temperature for three hours for JAK1, 60 minutes for JAK2, 75 minutes for JAK3 or 135 minutes for TYK2. Enzyme concentrations and incubation times were optimized for each new enzyme preps and were modified slightly over time to ensure 20%-30% phosphorylation. The assays were stopped with a final concentration of 10 mM EDTA, 0.1% Coating Reagent and 100 mM HEPES, pH=7.4. The assay plates were placed on a Caliper Life Science Lab Chip 3000 (LC3000) instrument, and each well was sampled using appropriate separation conditions to measure the unphosphorylated and phosphorylated peptide.

IFNg induced pSTATI = assay: IFNγ-induced pSTAT1 in human whole blood (CD14+ cells); type: cell-based; settings: JAK1/JAK2, read-out: IFNg induced pSTATI, cellular potency IC50
Experimental: as §1, §2

IC50 (IL-6 induced pSTATI) | IC50 (IL-21 induced pSTAT3) | IC50 (JAK2) | IC50 (IFNg induced pSTATI) | Structure (SMILES)
136 nM | 487 nM | 886 nM | 2160 nM | C[C@H](O)CS(=O)(=O)N[C@H]1C[C@@H](N(C)c2ncnc3[nH]ccc23)C1 (single isomer, unassigned) [IA (M2)]
333 nM | 1050 nM | 2280 nM | 4250 nM | C[C@@H](O)CS(=O)(=O)N[C@H]1C[C@@H](N(C)c2ncnc3[nH]ccc23)C1 (single isomer, unassigned) [IC (M3)]
171 nM | 844 nM | 1140 nM | 1950 nM | CN(c1ncnc2[nH]ccc12)[C@H]1C[C@@H](NS(=O)(=O)CCCO)C1 [IB (M1), 3-Hydroxy-N-(cis-3-(methyl(7H-pyrrolo[2,3-d]pyrimidin-4-yl)amino)cyclobutyl)propane-1-sulfonamide]
